From US10954258B2, “STAT3 dimerization inhibitors” (H. LEE MOFFITT CANCER CENTER AND RESEARCH INSTITUTE, INC., priority 2012, dated 2021)
[ ]: non-standard residue; d: D form. pY = N[C@@H](Cc1ccc(OP(=O)(O)O)cc1)C(=O)O

Tests used:
[1] = tested on: human breast and liver cancer xenografts; conditions: human breast and liver cancer xenografts in mouse models; cited from earlier work
[2] = biological target: binding of FLAG-STAT3 to HA-STAT3 (Mus musculus, UniProt P42227); assay: co-immunoprecipitation of FLAG-STAT3 with HA-STAT3 in HEK293 cells; format: cell-based, human; conditions: HEK293 cells co-expressing FLAG- and HA-STAT3; treated 4 h
Procedure: HEK-293/FLAG-STAT3/HA-STAT3 cells were treated for 4 h with vehicle, S3I-1757, S3I-1756, Ac-G{pTYR}LPQTV-[…]-NH2 (SEQ ID NO:3) or Ac-GYLPQTV-[…]-NH2 (SEQ ID NO:4) and then lysed in 20 mM Tris-HCl (pH 7.4), 5 mM EDTA, 10 mM Na4P2O7, 100 mM NaF, 2 mM Na3VO4, 1% NP-40.1 mM PMSF and 10 mg/ml aprotinin. For EGF stimulation group, HEK-293/FLAG-STAT3/HASTAT3 cells were treated by 100 ng/ml EGF for 30 minutes before making cell lysate. Protein A or G agarose (EMD Millipore, Billerica, Mass., USA) was washed twice with PBS and restore to 50% slurry with PBS. 500 μg of lysate were pre-cleared by mixture of protein A and protein G-agarose for 1 h at 4° C. and then remove protein A and G-agarose by centrifuge at 1300 rpm for 3 minutes. And then 500 μg of lysate was immunoprecipitated with 50 ng of HA antibody overnight at 4° C. on shaker and then capture the immunocomplex by adding 100 μl Protein A and G agarose/sepharose bead slurry for 1 hour at 4° C. Samples were washed five times with lysis buffer and then boiled in 5×SDS-PAGE sample buffer and run on SDS-PAGE gel. Protein was transferred to nitrocellulose membrane and then blotted as described above for HA, FLAG, pSTAT3, EGFR, and STAT3.
However, the FP assay only measured the ability of S3I-1757 to displace the 7 amino acid fluorescein-labelled GpYLPQTV phosphotyrosine peptide from the SH2 domain of STAT3 protein in vitro. Therefore, it was determined if the intracellular reciprocal binding of 2 full-length STAT3 proteins is inhibited. To this end, an assay was developed to measure directly STAT3-STAT3 dimerization in intact cells by cloning HA-tagged STAT3 and FLAG-tagged STAT3, generating HEK293 cells that stably co-express HA-STAT3 and FLAG-STAT3 and using these cells for coimmunoprecipitation and co-localization. […] This assay was validated by treating the FLAG-STAT3/HA-STAT3 HEK293 cells with tyrosine phosphorylated or nonphosphorylated GYLPQTV peptide fused to a membrane-translocating sequence (MTS) to allow cell uptake. […]

[3] = tested on: STAT3-DNA binding activity in MDA-MB-468 and A-549 cells; assay: STAT3-DNA binding filter plate assay on nuclear extracts; format: cell-based, human; conditions: 1, 2 or 4 hours
Procedure: Nuclear extract preparation was carried out as described in Yu, et al., Science 1995; 269(5220):81-83. The STAT3-DNA binding filter plate assay was performed following the manual of the filter plate assay kit (Signosis, Sunnyvale, Calif.), as described for NFkB (Ying, et al., Blood 2011; 117(4):1301-1307). The TF Binding buffer was mixed with the STAT3 probe (biotin labeled STAT3 DNA binding sequence) and nuclear extract and incubated at 16° C. for 30 minutes to form the STAT3-DNA complex. The STAT3-DNA complex was then separated from free probe by using a filter plate. After several steps of binding and washing, bound STAT3 probe is retained on the filter in the corresponding well of Filer Plate and the free DNA probe is removed. The bound pre-labeled STAT3 probe was then eluted from the filter plate by centrifuge with elution buffer. Eluted probes were then hybridized into 96-well Hybridization Plate for quantitative analysis. The captured STAT3 probe was further detected by conjugation with streptavidin-HRP. The chemiluminescence of each well was detected by 2104 EnVisionR Multilabel Reader of PerkinElmer (Pekin Elmer, Waltham, Mass., USA) within 5 minutes after mixture with substrates. […]

[4] = tested on: P-STAT3 in the nucleus of MDA-MB-468 cells; assay: P-STAT3 nuclear accumulation by immunofluorescence; format: cell-based, human; conditions: 18 hours, various concentrations
Procedure: MDA-MB-468 cells were plated at 4000 cells/well in 8-chamber slide. […] Cells were fixed, washed, and permeabilized as describe above. Specimens were then blocked in 1% bovine serum albumin (BSA) for 30 min and incubated with anti-pSTAT3 (Cell Signaling), antibody at 1:50 dilution at 4° C. overnight. Subsequently, cells were rinsed 4-5 times in PBS, incubated with Alexa Fluor secondary antibody for 1 hour at room temperature in the dark. Specimens were then washed 5 times with PBS, covered with cover slides with [sequence] mounting medium containing DAPI (Vector Lab, Inc., Burlingame, Calif.), and examined immediately under Zeiss Upright Fluorescence Microscope (Zeiss, Thornwood, N.Y., USA).

Sequence of binding of FLAG-STAT3 to HA-STAT3 (P42227 whole entry): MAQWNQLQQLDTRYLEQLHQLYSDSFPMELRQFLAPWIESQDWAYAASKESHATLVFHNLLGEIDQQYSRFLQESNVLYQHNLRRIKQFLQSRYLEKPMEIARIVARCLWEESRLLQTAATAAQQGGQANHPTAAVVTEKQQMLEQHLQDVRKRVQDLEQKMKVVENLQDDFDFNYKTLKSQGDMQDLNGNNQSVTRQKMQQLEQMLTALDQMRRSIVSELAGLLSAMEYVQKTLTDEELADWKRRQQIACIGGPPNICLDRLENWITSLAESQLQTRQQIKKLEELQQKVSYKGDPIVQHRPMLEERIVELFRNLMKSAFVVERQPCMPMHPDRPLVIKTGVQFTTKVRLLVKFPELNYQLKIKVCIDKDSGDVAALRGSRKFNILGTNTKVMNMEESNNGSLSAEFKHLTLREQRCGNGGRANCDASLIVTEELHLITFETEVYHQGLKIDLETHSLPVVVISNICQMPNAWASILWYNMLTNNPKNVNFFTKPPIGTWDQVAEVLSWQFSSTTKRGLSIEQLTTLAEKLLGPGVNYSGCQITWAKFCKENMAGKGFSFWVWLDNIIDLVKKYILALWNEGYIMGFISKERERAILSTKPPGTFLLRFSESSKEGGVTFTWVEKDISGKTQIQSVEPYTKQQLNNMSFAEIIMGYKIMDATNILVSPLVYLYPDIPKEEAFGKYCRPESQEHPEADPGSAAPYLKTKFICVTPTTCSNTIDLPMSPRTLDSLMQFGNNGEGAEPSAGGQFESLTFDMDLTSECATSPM

In the case of `Cc1ccc(S(=O)(=O)OCC(=O)Nc2ccc(C(=O)O)c(O)c2)cc1` [Compound S3I-201], the “antitumor effects in xenografts” value [1] is given as “exert antitumor effects against human breast and liver cancer xenografts in mouse models”.

For “Ac-G{pTYR}LPQTV-AAVLLPVLLAAP-NH2 (Ac-G[pY]LPQTVAAVLLPVLLAAP-NH2; SMILES CC(=O)NCC(=O)N[C@@H](Cc1ccc(OP(=O)(O)O)cc1)C(=O)N[C@@H](CC(C)C)C(=O)N1CCC[C@H]1C(=O)N[C@@H](CCC(N)=O)C(=O)N[C@H](C(=O)N[C@H](C(=O)N[C@@H](C)C(=O)N[C@@H](C)C(=O)N[C@H](C(=O)N[C@@H](CC(C)C)C(=O)N[C@@H](CC(C)C)C(=O)N1CCC[C@H]1C(=O)N[C@H](C(=O)N[C@@H](CC(C)C)C(=O)N[C@@H](CC(C)C)C(=O)N[C@@H](C)C(=O)N[C@@H](C)C(=O)N1CCC[C@H]1C(N)=O)C(C)C)C(C)C)C(C)C)[C@@H](C)O) [P-Pep, reference compound]”, the “binding of FLAG-STAT3 to HA-STAT3 (co-immunoprecipitation)” value [2] was “inhibited FLAG-STAT3 from co-immunoprecipitating with HA-STAT3”.

With `COc1ccc(CN(C(=O)c2ccc(Oc3ccccc3)cc2)c2ccc(O)c(C(=O)O)c2)cc1` [Compound 20b, 2-Hydroxy-5-(N-(4-methoxybenzyl)-4-phenoxybenzamido)benzoic acid] the “activated STAT3 in nuclear extracts capable of binding the STAT3 DNA binding probe” value [3] was “did not decrease the amount of STAT3 capable of binding DNA”, the P-STAT3 nuclear accumulation [4] was “little effect with concentrations as high as 200 μM” and the “binding of FLAG-STAT3 to HA-STAT3 (co-immunoprecipitation)” value [2] was “did not inhibit this binding with concentrations as high as 200 μM”.

With `O=C(c1ccc(Oc2ccccc2)cc1)N(Cc1ccc(C2CCCCC2)cc1)c1cccc(CP(=O)(O)O)c1` [Compound 17d, 3-(N-(4-Cyclohexylbenzyl)-4-phenoxybenzamido)benzylphosphonic acid] the melting point was 97 °C (dec.).

With `O=C(c1ccc(Oc2ccccc2)cc1)N(Cc1ccc(C2CCCCC2)cc1)c1ccc(CP(=O)(O)O)cc1` [Compound 17c, 4-(N-(4-Cyclohexylbenzyl)-4-phenoxybenzamido)benzylphosphonic acid] the melting point was 188 °C (dec.).

In the case of `O=C(c1ccc(Oc2ccccc2)cc1)N(Cc1ccc(C2CCCCC2)cc1)c1ccc(P(=O)(O)O)cc1` [Compound 17a, 4-(N-(4-Cyclohexylbenzyl)-4-phenoxybenzamido)phenylphosphonic acid], the melting point is reported as 182.7 °C (dec.).

Compound `O=C(Nc1ccc(CP(=O)(O)O)cc1)c1ccc(Oc2ccccc2)cc1` [Compound 18c, 4-(4-Phenoxybenzamido)benzylphosphonic acid] has a melting point greater than 250 °C.
